# Source: US4321381A, “Ergot derivatives” (Farmitalia Carlo Erba S.p.A., priority 1978, dated 1982)
# Legend:
# [1] = tested on: normotensive rats; assay: Blood pressure and heart rate in the conscious normotensive rat (NR); type: in vivo; settings: 5 mg/kg os
# Experimental: Blood pressure recordings have been made in conscious normotensive unrestrained rats weighing approximately 300 g, via a catheter chronically inserted into the left common carotid artery. Implantation of arterial cannula was made under sodium pentobarbital anesthesia (50 mg/kp i.p.) A 1 cm long incision was made through the previously shaved ventral surface of the neck and the tissues overlying the trachea parted by blunt dissection to reveal the carotid artery. The polyethylene catheter used was made with PE 50 tubing, previously filled with saline containing 250 I.U./ml heparin. The tip of the cannula was pushed at least 2 cm inside the vessel toward the heart. The cannula was then firmly tied and passed beneath the skin to emerge from a small incision in the back of the neck. During the post-operative period and before the start of each recording session, the cannula was flushed through daily with saline containing heparin (250 I.U./ml). The experiments were performed two days after surgery. Drugs were administered by gastric gavage.
# [2] = tested on: spontaneously hypertensive male rats, strain MHS; assay: Anti-hypertensive activity in the spontaneously hypertensive rat (MHS): blood pressure and heart rate at the tail; type: in vivo
# Experimental: 1. Spontaneously Hypertensive Rat (MHS)
# Four spontaneously hypertensive male rats, strain MHS, weight 250 to 300 g for each group were used. The animals were treated for four consecutive days. The drugs were administered by gastric gavage while suspended in 5% arabic gum (0.2 ml/100 g body weight), and blood pressure (BP) and heart rate (HR) were measured at the tail by BP Recorder W+W. Blood pressure and heart rate were measured on the first and fourth day of treatment 1 hour before and 1 and 5 hours after drug administration.
# [3] = Acute toxicity (LD50) in mice; type: in vivo, mouse; settings: mouse, in vivo; male mice; oral; observed for seven days
# Source text: (§1) Evaluation of the Toxicity (LD50)
# (§2) Ten male mice for each group were orally treated with drugs at different dose levels for the determination of lethal dose 50 (LD50).
# [4] = tested on: male mice; assay: Acute toxicity (LD50) in mice; type: in vivo, mouse; settings: oral, observed for seven days, 10080 min
# Source text: as §1, §2
Structure (SMILES),"Change in Blood Pressure after Treatment, 30' [1] [mm Hg]","Change in heart rate after treatment, 30' [1]","Change in Blood Pressure after Treatment, 60' [1] [mm Hg]","Change in heart rate after treatment, 60' [1]","Change in Blood Pressure after Treatment, 120' [1] [mm Hg]","Change in heart rate after treatment, 120' [1]","Change in Blood Pressure after Treatment, 180' [1] [mm Hg]","Change in heart rate after treatment, 180' [1]","Change in Blood Pressure after Treatment, 240' [1] [mm Hg]","Change in heart rate after treatment, 240' [1]","Change in Blood Pressure after Treatment, 360' [1] [mm Hg]","Change in heart rate after treatment, 360' [1]","Change in Blood Pressure after Treatment, 24h [1]","Change in heart rate after treatment, 24h [1]","Change in BP, 1 hr after dose, first day ([2]; 2 mg/kg os)","Change in HR, 1 hr after dose, first day ([2]; 2 mg/kg os)","Change in HR, 5 hr after dose, first day ([2]; 2 mg/kg os)","Change in BP, 5 hrs after dose, first day ([2]; 2 mg/kg os)","Change in BP, 1 hr after dose, fourth day ([2]; 2 mg/kg os)","Change in HR, 1 hr after dose, fourth day ([2]; 2 mg/kg os)",also measured
"CCNC(=O)C(C#N)C[C@@H]1C[C@@H]2c3cccc4[nH]cc(c34)C[C@H]2N(C)C1 (stereo partly drawn) [Example 1138, 2-Cyano-3-(6'-methylergoline-8'β)-N-ethylpropionamide]",-10,-15 b/min,-20,-30 b/min,-15,-30 b/min,-10,-15 b/min,-10,0 b/min,0,+5 b/min,0 mm Hg,+10 b/min,-23 mm Hg,-25 b/min,-10 b/min,-14 mm Hg,-30 mm Hg,-47 b/min,"Change in HR, 5 hr after dose, fourth day ([2]; 2 mg/kg os): -12 b/min; Change in BP, 5 hrs after dose, fourth day ([2]; 2 mg/kg os): -15 mm Hg; Change in BP, 1 hr after dose, first day ([2]; 5 mg/kg os): -25 mm Hg; Change in HR, 1 hr after dose, first day ([2]; 5 mg/kg os): -8 b/min; Change in HR, 5 hr after dose, first day ([2]; 5 mg/kg os): +5 b/min; Change in BP, 5 hrs after dose, first day ([2]; 5 mg/kg os): -9 mm Hg; Change in BP, 1 hr after dose, fourth day ([2]; 5 mg/kg os): -26 mm Hg; Change in HR, 1 hr after dose, fourth day ([2]; 5 mg/kg os): -20 b/min; Change in HR, 5 hr after dose, fourth day ([2]; 5 mg/kg os): -25 b/min; Change in BP, 5 hrs after dose, fourth day ([2]; 5 mg/kg os): -11 mm Hg; LD50 at 168 h [3]: 500 mg/kg"
"CN1C[C@H](CC(C#N)C(N)=O)C[C@@H]2c3cccc4[nH]c(Br)c(c34)C[C@H]21 (stereo partly drawn) [Example 1139, 2-Cyano-3-(2-bromo-6'-methylergoline-8'β)-propionamide]",-5,0 b/min,-12,+10 b/min,-12,+10 b/min,-10,-5 b/min,-5,0 b/min,0,+15 b/min,+2 mm Hg,0 b/min,-13 mm Hg,+7 b/min,+12 b/min,-23 mm Hg,-18 mm Hg,+47 b/min,"Change in HR, 5 hr after dose, fourth day ([2]; 2 mg/kg os): +35 b/min; Change in BP, 5 hrs after dose, fourth day ([2]; 2 mg/kg os): -12 mm Hg; Change in BP, 1 hr after dose, first day ([2]; 5 mg/kg os): -25 mm Hg; Change in HR, 1 hr after dose, first day ([2]; 5 mg/kg os): +28 b/min; Change in HR, 5 hr after dose, first day ([2]; 5 mg/kg os): +13 b/min; Change in BP, 5 hrs after dose, first day ([2]; 5 mg/kg os): -24 mm Hg; Change in BP, 1 hr after dose, fourth day ([2]; 5 mg/kg os): -12 mm Hg; Change in HR, 1 hr after dose, fourth day ([2]; 5 mg/kg os): -10 b/min; Change in HR, 5 hr after dose, fourth day ([2]; 5 mg/kg os): -12 b/min; Change in BP, 5 hrs after dose, fourth day ([2]; 5 mg/kg os): -13 mm Hg; LD50 at 168 h [3]: 125 mg/kg"
"NNc1nncc2ccccc12 [Hydralazine, hydralazine, reference compound]",-19,+70 b/min,-13,+40 b/min,-10,+21 b/min,-7,+9 b/min,-5,+21 b/min,-7,+12 b/min,0 mm Hg,+3 b/min,+2 mm Hg,+10 b/min,-28 b/min,+18 mm Hg,+7 mm Hg,+43 b/min,"Change in HR, 5 hr after dose, fourth day ([2]; 2 mg/kg os): +23 b/min; Change in BP, 5 hrs after dose, fourth day ([2]; 2 mg/kg os): +15 mm Hg; Change in BP, 1 hr after dose, first day ([2]; 5 mg/kg os): -52 mm Hg; Change in HR, 1 hr after dose, first day ([2]; 5 mg/kg os): -45 b/min; Change in HR, 5 hr after dose, first day ([2]; 5 mg/kg os): +12 b/min; Change in BP, 5 hrs after dose, first day ([2]; 5 mg/kg os): -38 mm Hg; Change in BP, 1 hr after dose, fourth day ([2]; 5 mg/kg os): -7 mm Hg; Change in HR, 1 hr after dose, fourth day ([2]; 5 mg/kg os): +10 b/min; Change in HR, 5 hr after dose, fourth day ([2]; 5 mg/kg os): +12 b/min; Change in BP, 5 hrs after dose, fourth day ([2]; 5 mg/kg os): -8 mm Hg; LD50 at 168 h [3]: 122 mg/kg"
"C[C@](N)(Cc1ccc(O)c(O)c1)C(=O)O [α-methyl-DOPA, reference compound]",–,–,–,–,–,–,–,–,–,–,–,–,–,–,–,–,–,–,–,–,"Change in HR, 1 hr after dose, first day ([2]; 30 mg/kg os): +40 b/min; Change in HR, 5 hr after dose, first day ([2]; 30 mg/kg os): +15 b/min; Change in BP, 5 hrs after dose, first day ([2]; 30 mg/kg os): -12 mm Hg; Change in BP, 1 hr after dose, fourth day ([2]; 30 mg/kg os): -12 mm Hg; Change in HR, 1 hr after dose, fourth day ([2]; 30 mg/kg os): +57 b/min; Change in HR, 5 hr after dose, fourth day ([2]; 30 mg/kg os): -18 b/min; Change in BP, 5 hrs after dose, fourth day ([2]; 30 mg/kg os): -19 mm Hg; Change in BP, 1 hr after dose, first day ([2]; 100 mg/kg os): +5 mm Hg; Change in HR, 1 hr after dose, first day ([2]; 100 mg/kg os): +87 b/min; Change in BP, 5 hrs after dose, first day ([2]; 100 mg/kg os): -38 mm Hg; Change in BP, 1 hr after dose, fourth day ([2]; 100 mg/kg os): -41 mm Hg; Change in HR, 1 hr after dose, fourth day ([2]; 100 mg/kg os): +77 b/min; Change in HR, 5 hr after dose, fourth day ([2]; 100 mg/kg os): +37 b/min; Change in BP, 5 hrs after dose, fourth day ([2]; 100 mg/kg os): -53 mm Hg; variation of the heart rate (HR), in words ([2]; Table 2): greatly increases it; LD50 [4]: 5300 mg/kg per os"
